Reference: PubChem BioAssay AID1963847 (Molecular Pharmacology Branch, DTP, NCI, 2024)

Tested on: 415267-285-R-J2-PDC complex spheroid viability
Experiment: Anticancer human tumor 415267-285-R-J2-PDC patient-derived breast carcinoma cell line growth inhibition [POLQ]
Conditions: for IC50: curve of first compound; for viability, T/C: stronger effect = lower value
Method in brief: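 Patient-derived tumour cells were co-cultured with HUVEC and mesenchymal stem cells as multicellular spheroids at 37 °C. They were treated with POLQ inhibitors (novobiocin, ART-558, RP6685) alone or combined with other agents. Top concentrations were at or near clinical Cmax (otherwise 10 microM; SN-38 at 1 microM), decreasing in half-log steps.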

[1] = second compound 0.0316 µM, first compound 0.0316 µM
[2] = second compound 0.0316 µM, first compound 0.1 µM
[3] = second compound 0.0316 µM, first compound 0.316 µM
[4] = second compound 0.0316 µM, first compound 1 µM
[5] = second compound 0.0316 µM, first compound 3.16 µM
[6] = second compound 0.0316 µM, first compound 10 µM
[7] = second compound 0.1 µM, first compound 0.0316 µM
[8] = second compound 0.1 µM, first compound 0.1 µM
[9] = second compound 0.1 µM, first compound 0.316 µM
[10] = second compound 0.1 µM, first compound 1 µM
[11] = second compound 0.1 µM, first compound 3.16 µM
[12] = second compound 0.1 µM, first compound 10 µM
[13] = second compound 0.316 µM, first compound 0.0316 µM
[14] = second compound 0.316 µM, first compound 0.1 µM
[15] = second compound 0.316 µM, first compound 0.316 µM
[16] = second compound 0.316 µM, first compound 1 µM
[17] = second compound 0.316 µM, first compound 3.16 µM
[18] = second compound 0.316 µM, first compound 10 µM
[19] = second compound 1 µM, first compound 0.0316 µM
[20] = second compound 1 µM, first compound 0.1 µM
[21] = second compound 1 µM, first compound 0.316 µM
[22] = second compound 1 µM, first compound 1 µM
[23] = second compound 1 µM, first compound 3.16 µM
[24] = second compound 1 µM, first compound 10 µM
[25] = second compound 3.16 µM, first compound 0.0316 µM
[26] = second compound 3.16 µM, first compound 0.1 µM
[27] = second compound 3.16 µM, first compound 0.316 µM
[28] = second compound 3.16 µM, first compound 1 µM
[29] = second compound 3.16 µM, first compound 3.16 µM
[30] = second compound 3.16 µM, first compound 10 µM
[31] = second compound 10 µM, first compound 0.0316 µM
[32] = second compound 10 µM, first compound 0.1 µM
[33] = second compound 10 µM, first compound 0.316 µM
[34] = second compound 10 µM, first compound 1 µM
[35] = second compound 10 µM, first compound 3.16 µM
[36] = second compound 10 µM, first compound 10 µM
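Also: spheroids exposed to compounds for one week before readout.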
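For viability, T/C in this document: luminescence used as stand-in measure of viable cells; 100% = DMSO vehicle control viability.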

## CC1COCCN1c1cc(C2(O)CC3CCC(C2)O3)c2cnn(-c3ccn[nH]3)c2n1 (centres undefined) + Nc1ccc(C#CCN(C(=O)Cc2ncc(C(F)(F)F)cc2C(F)(F)F)c2ccc(F)cc2)nn1
Second compound 0.0316 µM
  IC50: < 0.0316 µM
Second compound 0.1 µM
  IC50: < 0.0316 µM
Second compound 0.316 µM
  IC50: < 0.0316 µM
Second compound 1 µM
  IC50: < 0.0316 µM
Second compound 3.16 µM
  IC50: < 0.0316 µM
Second compound 10 µM
  IC50: < 0.0316 µM
[1]
  viability, T/C: 19.2%
[2]
  viability, T/C: 6.63%
[3]
  viability, T/C: 4.19%
[4]
  viability, T/C: 3.59%
[5]
  viability, T/C: 4.18%
[6]
  viability, T/C: 5.72%
[7]
  viability, T/C: 22%
[8]
  viability, T/C: 6.34%
[9]
  viability, T/C: 5.38%
[10]
  viability, T/C: 4.69%
[11]
  viability, T/C: 3.81%
[12]
  viability, T/C: 2.94%
[13]
  viability, T/C: 22.7%
[14]
  viability, T/C: 6.83%
[15]
  viability, T/C: 4.18%
[16]
  viability, T/C: 3.94%
[17]
  viability, T/C: 3.9%
[18]
  viability, T/C: 2.58%
[19]
  viability, T/C: 18.7%
[20]
  viability, T/C: 5.19%
[21]
  viability, T/C: 4.87%
[22]
  viability, T/C: 3.6%
[23]
  viability, T/C: 3.79%
[24]
  viability, T/C: 2.6%
[25]
  viability, T/C: 16.6%
[26]
  viability, T/C: 5.61%
[27]
  viability, T/C: 4.81%
[28]
  viability, T/C: 3.47%
[29]
  viability, T/C: 3.8%
[30]
  viability, T/C: 3.42%
[31]
  viability, T/C: 16.1%
[32]
  viability, T/C: 6.98%
[33]
  viability, T/C: 5.96%
[34]
  viability, T/C: 4.12%
[35]
  viability, T/C: 3.92%
[36]
  viability, T/C: 3.05%

## CCc1cc2c(N3CCc4c(cc(Cn5ccnc5)cc4-c4cn(C)nc4C(F)(F)F)C3=O)ccnc2c(OC)n1 + Nc1ccc(C#CCN(C(=O)Cc2ncc(C(F)(F)F)cc2C(F)(F)F)c2ccc(F)cc2)nn1
Second compound 0.0316 µM
  IC50: > 10 µM
Second compound 0.1 µM
  IC50: > 10 µM
Second compound 0.316 µM
  IC50: > 10 µM
Second compound 1 µM
  IC50: > 10 µM
Second compound 3.16 µM
  IC50: > 10 µM
Second compound 10 µM
  IC50: > 10 µM
[1]
  viability, T/C: 95.8%
[2]
  viability, T/C: 92.1%
[3]
  viability, T/C: 78.2%
[4]
  viability, T/C: 87.2%
[5]
  viability, T/C: 89.7%
[6]
  viability, T/C: 70.8%
[7]
  viability, T/C: 94.3%
[8]
  viability, T/C: 88.4%
[9]
  viability, T/C: 79.6%
[10]
  viability, T/C: 85.3%
[11]
  viability, T/C: 92.9%
[12]
  viability, T/C: 68.1%
[13]
  viability, T/C: 94.2%
[14]
  viability, T/C: 90.7%
[15]
  viability, T/C: 75.7%
[16]
  viability, T/C: 84.1%
[17]
  viability, T/C: 86.4%
[18]
  viability, T/C: 71.4%
[19]
  viability, T/C: 85.9%
[20]
  viability, T/C: 96%
[21]
  viability, T/C: 81.8%
[22]
  viability, T/C: 82.1%
[23]
  viability, T/C: 87.8%
[24]
  viability, T/C: 70.7%
[25]
  viability, T/C: 90.4%
[26]
  viability, T/C: 87.3%
[27]
  viability, T/C: 78.8%
[28]
  viability, T/C: 88.8%
[29]
  viability, T/C: 78.2%
[30]
  viability, T/C: 73.3%
[31]
  viability, T/C: 94.9%
[32]
  viability, T/C: 83.8%
[33]
  viability, T/C: 90.4%
[34]
  viability, T/C: 87.9%
[35]
  viability, T/C: 77.5%
[36]
  viability, T/C: 68.2%
